What was measured:
Assay type in all cases: in vivo
Spring Wheat “Teal” = experiment: Test 1B glasshouse assay, post-emergence herbicidal activity against cereal crops; conditions: 14 DAA
How it was run: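 Technical compound in IF50 with acetone, diluted into 0.5% v/v Adigor, sprayed post-emergence on 14-day glasshouse plants (22/16 °C, 16 h light, 65% humidity), typically at 60, 90 or 120 g/ha, with or without 50 g/ha cloquintocet-mexyl safener. Phytotoxicity scored visually 14 DAA (0–100%), mean of two replicates.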

[1] = tested on: Alopecurus myosuroides (ALOMY); experiment: Test 1A glasshouse assay, pre-emergence herbicidal activity; conditions: 312 h, 250 g/ha, 13 days after application, read-out: Pre-emergence herbicidal activity (% phytotoxicity) ALOMY
Lolium perenne (LOLPE) = experiment: as above; conditions: 312 h, 250 g/ha, 13 days after application, read-out: Pre-emergence herbicidal activity (% phytotoxicity) LOLPE
Avena fatua (AVEFA) [2] = experiment: as above; conditions: 312 h, 250 g/ha, 13 days after application, read-out: Pre-emergence herbicidal activity (% phytotoxicity) AVEFA
[3] = tested on: Echinochloa crus-galli (ECHCG); experiment: as above; conditions: 312 h, 250 g/ha, 13 days after application, read-out: Pre-emergence herbicidal activity (% phytotoxicity) ECHCG
[4] = tested on: Alopecurus myosuroides (ALOMY); experiment: Test 1A glasshouse assay, post-emergence herbicidal activity; conditions: Alopecurus myosuroides, 312 h, application rate 250 g/ha, 13 days after application, visual (100%=total damage; 0%=no damage), read-out: Post-emergence Herbicidal Activity (% Phytotoxicity) ALOMY
How it was run: (§1)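 Phytotoxicity was rated visually on a 0–100% scale 13 days post-spray. Pot-grown seedlings, 8 days old, received aqueous spray from an acetone/water 50:50 formulation with 0.5% Tween 20, then were kept in the glasshouse at 24/16° C day/night, 14 h light, 65% humidity.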

Avena fatua (AVEFA) [5] = experiment: as above; conditions: Avena fatua, 312 h, application rate 250 g/ha, 13 days after application, visual (100%=total damage; 0%=no damage), read-out: Post-emergence Herbicidal Activity (% Phytotoxicity) AVEFA
How it was run: as §1

[6] = tested on: Echinochloa crus-galli (ECHCG); experiment: as above; conditions: Echinochloa crus-galli, 312 h, application rate 250 g/ha, 13 days after application, visual (100%=total damage; 0%=no damage), read-out: Post-emergence Herbicidal Activity (% Phytotoxicity) ECHCG
How it was run: as §1

SMILES	Post-emergence herbicidal activity against cereal crops, percentage phytotoxicity, Spring Wheat “Teal” (Spring Wheat “Teal”; 30 g/ha herbicide, 50 g/ha cloquintocet-mexyl) [%]	Post-emergence herbicidal activity against cereal crops, percentage phytotoxicity, Spring Wheat “Teal” (Spring Wheat “Teal”; 45 g/ha herbicide, 50 g/ha cloquintocet-mexyl) [%]	Post-emergence herbicidal activity against cereal crops, percentage phytotoxicity, Spring Wheat “Teal” (Spring Wheat “Teal”; 60 g/ha herbicide, 0 g/ha cloquintocet-mexyl) [%]	Post-emergence herbicidal activity against cereal crops, percentage phytotoxicity, Spring Wheat “Teal” (Spring Wheat “Teal”; 60 g/ha herbicide, 50 g/ha cloquintocet-mexyl) [%]	inhibition at 250 g/ha [1] [%]	inhibition at 250 g/ha (Lolium perenne (LOLPE)) [%]	inhibition at 250 g/ha (Avena fatua (AVEFA) [2]) [%]	inhibition at 250 g/ha [3] [%]	pest or weed control at 250 g/ha [4] [%]	pest or weed control at 250 g/ha (Avena fatua (AVEFA) [5]) [%]	pest or weed control at 250 g/ha [6] [%]
Cc1cc(C)c(C2C(=O)CC(CCNC(=O)c3cccc(F)n3)C2=O)c(C)c1 (racemic) [Compound A89]	13	20	75	50	100	100	100	100	100	100	100
Cc1cc(C)c(C2C(=O)CC(CCNC(=O)c3ccc(Br)cn3)C2=O)c(C)c1 (racemic) [Compound A120, 5-bromo-N-{2-[2,4-dioxo-3-(2,4,6-trimethylphenyl)cyclopentyl]ethyl}pyridine-2-carboxamide]					90	100	70	100	100	90	100

From patent publication US9808003B2, “Herbicidally active 2-(substituted-phenyl)-cyclopentane-1,3-dione compounds and derivatives thereof” (Syngenta Limited, priority 2013, dated 2017)
